For the assay, the system named is BML-17. Nature of the assay: Hemagglutination-inhibition test with BML-17 and trypsin-treated rabbit erythrocytes. The format is cell-based, Bryopsis maxima. As to conditions: for Minimum inhibitory concentration: inhibition of BML-17 (agglutination titer 4) agglutination of TRBC; for Inhibition of agglutinating activity of BML-17 (in words): TRBC. On the procedure:
Hemagglutinating activity was measured using a micro titer method. Twenty-five μl of serially two-fold dilutions of each purified fraction solution adjusted with saline was placed on a micro titer plate. Each diluted solution was supplemented with 25 μl of a 2% suspension of trypsin-treated rabbit erythrocytes and was gently stirred. The mixture was allowed to stand at room temperature for 1.5 hours and agglutination was observed. Agglutination was evaluated with naked eye. Agglutination of 50% or greater percentage of red blood cells was evaluated as positive. Agglutinating activity was given by agglutination titer, i.e., the protein concentration of maximum diluent showing agglutinating activity.
In this Example, trypsin-treated rabbit red blood cells (TRBC) were used as red blood cells. TRBC was prepared as follows. First, 2 ml of blood was collected from the ear of a rabbit kept in laboratory. The blood sample was washed 3 times with about 50 ml of saline, and was supplemented with 50 ml of saline to obtain a 2% rabbit blood cell suspension. The solution was supplemented with 1/10 volume of 0.5% trypsin in saline, and was allowed to stand at 37° C. for 1.5 hours. The trypsin-treated red blood cells were then washed 3 times with saline, and were supplemented with 45 ml of saline to obtain a 2% suspension of trypsin-treated rabbit erythrocytes (or blood cells) (TRBC).
Hemagglutination-inhibition test was performed according to the following procedure. First, each 25 μl of serially two-fold dilutions of sugar solution in saline was placed on a micro titer plate. The concentration of the original solutions of sugars examined was 100 mM for monosaccharides and oligosaccharides, and 2 mg/ml for glycoproteins. Each solution was mixed with 25 μl of BML-17 solution that had been adjusted to an agglutination titer of 4, and allowed to stand for 1.5 hours at room temperature after gentle stirring. Then, 25 μl of TRBC was added, and the mixture was allowed to stand for 2 hours at room temperature to observe hemagglutination inhibitory capability. The presence or absence of hemagglutination inhibitory capability was determined by naked eye. The test was positive when no hemagglutination occurred in about 100% of the red blood cells.
The hemagglutination inhibition test used D-glucose, D-galactose, D-mannose, N-acetyl-D-glucosamine, N-acetyl-D-galactosamine, D-xylose, L-fucose, fructose, lactose, and raffinose as monosaccharides and oligosaccharides. As glycoproteins, mucin (bovine submaxillary gland) and asialomucin, fetuin (type III, calf serum) and asialofetuin, transferrin (human) and asialotransferrin, α1-acid glycoprotein (human) and alialo-α1-acid glycoprotein, and yeast mannan were used.

[1] abbreviates: monosaccharides and oligosaccharides.

Take `O=C[C@H](O)[C@@H](O)[C@@H](O)[C@H](O)CO` [D-Galactose]: under setting [1], the Minimum inhibitory concentration result is reported as “— (No inhibition at 100 mM of mono- or oligosaccharides)”. In the case of `C[C@H](O)[C@@H](O)[C@@H](O)[C@H](O)C=O` [L-Fucose], under setting [1], the Minimum inhibitory concentration result is “— (No inhibition at 100 mM of mono- or oligosaccharides)”. The same measure, in the same setting: the same measure for `OC[C@H]1O[C@H](OC[C@H]2O[C@H](O[C@]3(CO)O[C@H](CO)[C@@H](O)[C@@H]3O)[C@H](O)[C@@H](O)[C@@H]2O)[C@H](O)[C@@H](O)[C@H]1O` [Raffinose]: “— (No inhibition at 100 mM of mono- or oligosaccharides)”. Consider `O=C[C@H](O)[C@@H](O)[C@H](O)CO` [D-Xylose], for which, under setting [1], the Minimum inhibitory concentration result is recorded as “— (No inhibition at 100 mM of mono- or oligosaccharides)”. Still for that read-out and setting: the same measure for `O=C(CO)[C@@H](O)[C@H](O)[C@H](O)CO` [Fructose]: “— (No inhibition at 100 mM of mono- or oligosaccharides)”; for `CC(=O)N[C@H]1C(O)O[C@H](CO)[C@H](O)[C@@H]1O` (stereo partly drawn) [N-Acetyl-D-galactosamine]: “— (No inhibition at 100 mM of mono- or oligosaccharides)”. As for “Transferrin: transferrin (human), glycoprotein”, the “Inhibition of agglutinating activity of BML-17 (in words)” value (shortened to “Inhibition”) is recorded as “inhibition occurred”. In addition, under “glycoproteins”, the Minimum inhibitory concentration was found to be 2000 µg/mL. Regarding “Asialotransferrin: asialo form of transferrin (human)”, the “Inhibition” value is “inhibition occurred”. The Minimum inhibitory concentration (glycoproteins) amounted to 1000 µg/mL. Regarding `OC[C@H]1O[C@@H](O[C@H]2[C@H](O)[C@@H](O)C(O)O[C@@H]2CO)[C@H](O)[C@@H](O)[C@H]1O` (some centres unmarked) [Lactose], the Minimum inhibitory concentration result under setting [1] was “— (No inhibition at 100 mM of mono- or oligosaccharides)”. As for Mucin, the “Inhibition” value was “inhibition occurred”. The molecule further yielded a Minimum inhibitory concentration (glycoproteins) of 250 µg/mL.

Turning to “αl-Acid glycoprotein: α1-acid glycoprotein (human)”, the Minimum inhibitory concentration result (glycoproteins) is “— (No inhibition at 100 mM of mono- or oligosaccharides, or at 2 mg/ml of glycoproteins)”. Turning to `CC(=O)N[C@H]1C(O)O[C@H](CO)[C@@H](O)[C@@H]1O` (stereo partly drawn) [N-Acetyl-D-glucosamine], the Minimum inhibitory concentration result under setting [1] is “— (No inhibition at 100 mM of mono- or oligosaccharides)”. As for `O=C[C@H](O)[C@@H](O)[C@H](O)[C@H](O)CO` [D-Glucose], the Minimum inhibitory concentration result under setting [1] is recorded as “— (No inhibition at 100 mM of mono- or oligosaccharides)”.

B1: Fetuin: fetuin (type III, calf serum) (protein)
chain: IPLDPVAGYKEPACDDPDTEQAALAAVDYINKHLPRGYKHTLNQIDSVKVWPRRPTGEVYDIEIDTLETTCHVLDPTPLANCSVRQQTQHAVEGDCDIHVLKQDGQFSVLFTKCDSSPDSAEDVRKLCPDCPLLAPLNDSRVVHAVEVALATFNAESNGSYLQLVEISRAQFVPLPVSVSVEFAVAATDCIAKEVVDPTKCNLLAEKQYGFCKGSVIQKALGGEDVRVTCTLFQTQPVIPQPQPDGAEAEAPSAVPDAAGPTPSAAGPPVASVVVGPSVVAVPLPLHRAHYDLRHTFSGVASVESSSGEAFHVGKTPIVGQPSIPGGPVRLCPGRIRYFKI
For the molecule B1, the “Inhibition” value is on record as “inhibition occurred”. The Minimum inhibitory concentration (glycoproteins) was 1000 µg/mL.

B2: Asialofetuin: asialo form of fetuin (protein)
chain: B1 chain
On to B2, for which the “Inhibition” value was “inhibition occurred”. The Minimum inhibitory concentration (glycoproteins) turned out to be 500 µg/mL.

Source of the values: patent US7867732B2, “Isolated polypeptide binding to a sugar chain, polynucleotide encoding the polypeptide and use of the polypeptide and polynucleotide” (National University of Corporation Hiroshima University, priority 2005, dated 2011).
